This assay is classed as in vivo, rat. The protocol: Distilled water and saline were administered as vehicle to rats in each control group. […] Plasma cytokine levels were measured by ELISA or multiplex immunoassay; common metabolites and lipid mediators were analyzed by GC-MS/MS and LC-MS/MS, respectively.
Pathway maps of lipid mediators were created by using CellDesigner 4.4 software (http://www.celldesigner.org). We evaluated the effects of the treatments on specific lipid mediators and categorized them according to COX, CYP and LOX pathways by Fisher’s exact test. The proinflammatory and anti-inflammatory indices were analyzed as described by Tam et al. with modification.[22]

The mark [1] stands for this setting: first value of an incomplete line, time (2h or 4h) not assignable.
Where [2] appears, read: PM/P (polyI:C+maoto vs polyI:C), 2h.
Where [3] appears, read: PM/P (polyI:C+maoto vs polyI:C), 4h.

Read-outs that look alike come from different tables or passages of the source.

Experimental findings from publication PMC5654968 (NPJ Systems Biology and Applications, 2017) are described below.

As for `CCCCC[C@H](O)/C=C/[C@@H]1[C@@H](C/C=C\CCCCCC(=O)O)[C@@H](O)C[C@H]1O` [1a1b-dihomo-PGF2α], the “log2FC of plasma level” value amounted to 1.56. Under setting [1], the “log2FC of plasma level” value amounted to 0.80.

As for `CC/C=C\C/C=C\C/C=C\C/C=C\C/C=C\C=C\C(O)CCC(=O)O` (stereo not drawn) [4-HDoHE], the “log2FC of plasma level” value (M/C (maoto vs control), 2h) came to 0.12; the “log2FC of plasma level” value (M/C (maoto vs control), 4h) is recorded as -0.59; the “log2FC of plasma level” value (P/C (polyI:C vs control), 2h) is recorded as -0.04; the “log2FC of plasma level” value (P/C (polyI:C vs control), 4h) amounted to 0.33; the “log2FC of plasma level” value under setting [2] turned out to be 0.03; the “log2FC of plasma level” value under setting [3] is -0.79.

Consider `CCCCC/C=C\C/C=C\C/C=C\CC(O)C1CCCC(=O)O1` (stereo not drawn) [5,6-DHET-lactone], for which the “log2FC of plasma level” value is recorded as -0.87. In addition, the “log2FC of plasma level” value under setting [1] was determined as 0.53.

In the case of `CCCCC/C=C\C/C=C\C/C=C\CC(O)C(O)CCCC(=O)O` (stereo not drawn) [5,6-DHET], the “log2FC of plasma level” value reads like this: (M/C (maoto vs control), 2h) 0.42; (M/C (maoto vs control), 4h) -0.54; (P/C (polyI:C vs control), 2h) -0.14; (P/C (polyI:C vs control), 4h) 0.11; under setting [2], 0.23; under setting [3], -0.71.

Regarding `CC/C=C\C/C=C\C/C=C\C/C=C\CC(O)C(O)CCCC(=O)O` (stereo not drawn) [5,6-DiHETE], the “log2FC of plasma level” value is, setting by setting: (M/C (maoto vs control), 2h) -0.03; (M/C (maoto vs control), 4h) -0.23; (P/C (polyI:C vs control), 2h) -0.19; (P/C (polyI:C vs control), 4h) 0.03; under setting [2], -0.44; under setting [3], -0.44.

Take `CCCCC/C=C\C/C=C\C/C=C\CC1OC1CCCC(=O)O` (stereo not drawn) [5,6-EET]: the “log2FC of plasma level” value runs as follows: (M/C (maoto vs control), 2h) -0.22; (M/C (maoto vs control), 4h) -0.49; (P/C (polyI:C vs control), 2h) -0.26; (P/C (polyI:C vs control), 4h) 0.11; under setting [2], 0.12; under setting [3], -0.56.

For `CC/C=C\C/C=C\C/C=C\C/C=C\C=C\C(O)CCCC(=O)O` (stereo not drawn) [5-HEPE], the “log2FC of plasma level” value was 0.39 (M/C (maoto vs control), 2h); -0.35 (M/C (maoto vs control), 4h); 0.16 (P/C (polyI:C vs control), 2h); 0.04 (P/C (polyI:C vs control), 4h); 0.10 under setting [2]; -0.47 under setting [3].

For the molecule `CCCCC/C=C\C/C=C\C/C=C\C=C\[C@@H](O)CCCC(=O)O` [5-HETE], the “log2FC of plasma level” value is -0.06 (M/C (maoto vs control), 2h); -0.47 (M/C (maoto vs control), 4h); -0.07 (P/C (polyI:C vs control), 2h); 0.39 (P/C (polyI:C vs control), 4h); 0.01 under setting [2]; -0.73 under setting [3].

As for `CCCCCC=CCC=CCC=CC=CC(=O)CCCC(=O)O` [5-KETE], the “log2FC of plasma level” value is listed as -0.29 (M/C (maoto vs control), 2h); -0.45 (M/C (maoto vs control), 4h); -0.18 (P/C (polyI:C vs control), 2h); 0.36 (P/C (polyI:C vs control), 4h); -0.02 under setting [2]; -0.67 under setting [3].

As for `CCCCC/C=C\C[C@@H]1[C@H](/C=C/C(O)CCCC(=O)O)[C@@H](O)C[C@H]1O` (stereo partly drawn) [5-iPF2α-VI], the “log2FC of plasma level” value (M/C (maoto vs control), 2h) is -0.16; the “log2FC of plasma level” value (M/C (maoto vs control), 4h) is -0.25; the “log2FC of plasma level” value (P/C (polyI:C vs control), 2h) is listed as -0.73; the “log2FC of plasma level” value (P/C (polyI:C vs control), 4h) is recorded as 0.38; the “log2FC of plasma level” value under setting [2] was determined as 0.75; the “log2FC of plasma level” value under setting [3] is given as -0.41.

Turning to `CCCCCC(=O)CCC1C(O)CC(O)C1CC(=O)CCCCC(=O)O` (stereo not drawn) [6,15-diketo-13,14-dihydro-PGF1α], the “log2FC of plasma level” value is given as -0.52. Further, the “log2FC of plasma level” value under setting [1] was 1.63.

In the case of `CCCCC[C@H](O)/C=C/[C@@H]1[C@@H](CC(=O)CCCCC(=O)O)[C@@H](O)C[C@H]1O` [6-keto-PGF1α], the “log2FC of plasma level” value is, setting by setting: (M/C (maoto vs control), 2h) 0.16; (M/C (maoto vs control), 4h) 0.08; (P/C (polyI:C vs control), 2h) 1.21; (P/C (polyI:C vs control), 4h) 0.67; under setting [2], -0.35; under setting [3], 0.01.

Consider `CC/C=C\C/C=C\C/C=C\C/C=C\C=C\C(O)C/C=C\CCC(=O)O` (stereo not drawn) [7-HDoHE], for which the “log2FC of plasma level” value runs as follows: (M/C (maoto vs control), 2h) 0.11; (M/C (maoto vs control), 4h) -0.26; (P/C (polyI:C vs control), 2h) 0.02; (P/C (polyI:C vs control), 4h) 0.23; under setting [2], -0.17; under setting [3], -0.39.

On to `CCCCC/C=C\C/C=C\CC(O)C(O)C/C=C\CCCC(=O)O` (stereo not drawn) [8,9-DHET], for which the “log2FC of plasma level” value is, setting by setting: (M/C (maoto vs control), 2h) 0.82; (M/C (maoto vs control), 4h) -0.02; (P/C (polyI:C vs control), 2h) 0.07; (P/C (polyI:C vs control), 4h) 0.42; under setting [2], 0.16; under setting [3], -0.59.

`CCCCC/C=C\C/C=C\CC1OC1C/C=C\CCCC(=O)O` (stereo not drawn) [8,9-EET]: the “log2FC of plasma level” value runs as follows: (M/C (maoto vs control), 2h) -0.23; (M/C (maoto vs control), 4h) -0.33; (P/C (polyI:C vs control), 2h) -0.32; (P/C (polyI:C vs control), 4h) 0.06; under setting [2], 0.27; under setting [3], -0.66.

For the molecule `CC/C=C\C/C=C\C/C=C\C/C=C\CC(O)/C=C/C=C\CCC(=O)O` (stereo not drawn) [8-HDoHE], the “log2FC of plasma level” value (M/C (maoto vs control), 2h) was 0.09; the “log2FC of plasma level” value (M/C (maoto vs control), 4h) is reported as -0.20; the “log2FC of plasma level” value (P/C (polyI:C vs control), 2h) is -0.07; the “log2FC of plasma level” value (P/C (polyI:C vs control), 4h) is recorded as 0.23; the “log2FC of plasma level” value under setting [2] is on record as -0.15; the “log2FC of plasma level” value under setting [3] was -0.44.

As for `CCCCC/C=C\C/C=C\C=C\C(O)C/C=C\CCCC(=O)O` (stereo not drawn) [8-HETE], the “log2FC of plasma level” value by setting is: (M/C (maoto vs control), 2h) 0.09; (M/C (maoto vs control), 4h) -0.40; (P/C (polyI:C vs control), 2h) -0.12; (P/C (polyI:C vs control), 4h) 0.39; under setting [2], 0.05; under setting [3], -0.62.

As for `CCCCCC(=O)/C=C/[C@@H]1[C@H](C/C=C\CCCC(=O)O)[C@@H](O)C[C@H]1O` [8-iso-15-keto-PGF2α], the “log2FC of plasma level” value is, setting by setting: (M/C (maoto vs control), 2h) -0.41; (M/C (maoto vs control), 4h) -0.68; (P/C (polyI:C vs control), 2h) -0.16; (P/C (polyI:C vs control), 4h) 1.04; under setting [2], -0.14; under setting [3], -0.99.

Take `CCCCC[C@H](O)/C=C/[C@H]1[C@H](O)CC(=O)[C@H]1C/C=C\CCCC(=O)O` [8-iso-PGE2]: the “log2FC of plasma level” value was -0.45 (M/C (maoto vs control), 2h); -0.43 (M/C (maoto vs control), 4h); -0.13 (P/C (polyI:C vs control), 2h); 0.77 (P/C (polyI:C vs control), 4h); -0.23 under setting [2]; -0.98 under setting [3].

In the case of `CCCCC/C=C\CC(O)C(O)CCCCCCCC(=O)O` (stereo not drawn) [9,10-DiHOME], the “log2FC of plasma level” value (M/C (maoto vs control), 2h) came to 0.50; the “log2FC of plasma level” value (M/C (maoto vs control), 4h) was -0.34; the “log2FC of plasma level” value (P/C (polyI:C vs control), 2h) came out at 0.31; the “log2FC of plasma level” value (P/C (polyI:C vs control), 4h) is on record as -0.14; the “log2FC of plasma level” value under setting [2] stood at 0.19; the “log2FC of plasma level” value under setting [3] is -0.10.

Turning to `CCCCC/C=C\CC1OC1CCCCCCCC(=O)O` (stereo not drawn) [9,10-EpOME], the “log2FC of plasma level” value is, setting by setting: (M/C (maoto vs control), 2h) 0.04; (M/C (maoto vs control), 4h) -0.80; (P/C (polyI:C vs control), 2h) 0.10; (P/C (polyI:C vs control), 4h) 0.36; under setting [2], -0.30; under setting [3], -1.14.

`CCCCC/C=C\C/C=C\CC(O)/C=C/C=C\CCCC(=O)O` (stereo not drawn) [9-HETE]: the “log2FC of plasma level” value runs as follows: (M/C (maoto vs control), 2h) 0.09; (M/C (maoto vs control), 4h) -0.42; (P/C (polyI:C vs control), 2h) -0.22; (P/C (polyI:C vs control), 4h) 0.63; under setting [2], 0.30; under setting [3], -1.09.

`CCCCC/C=C\C=C\C(O)CCCCCCCC(=O)O` (stereo not drawn) [9-HODE]: the “log2FC of plasma level” value (M/C (maoto vs control), 2h) is listed as -0.05; the “log2FC of plasma level” value (M/C (maoto vs control), 4h) is reported as -0.53; the “log2FC of plasma level” value (P/C (polyI:C vs control), 2h) was -0.02; the “log2FC of plasma level” value (P/C (polyI:C vs control), 4h) is 0.50; the “log2FC of plasma level” value under setting [2] is recorded as -0.13; the “log2FC of plasma level” value under setting [3] was -0.97.

As to `CC/C=C\C/C=C\C=C\C(O)CCCCCCCC(=O)O` (stereo not drawn) [9-HOTrE], the “log2FC of plasma level” value by setting is: (M/C (maoto vs control), 2h) 0.03; (M/C (maoto vs control), 4h) -0.77; (P/C (polyI:C vs control), 2h) 0.04; (P/C (polyI:C vs control), 4h) 0.61; under setting [2], -0.05; under setting [3], -1.19.

Take `CCCCC/C=C\C=C\[C@H](CCCCCCCC(=O)O)OO` [9-HpODE, 9S-hydroperoxy-10E,12Z-octadecadienoic acid]: the “log2FC of plasma level” value (M/C (maoto vs control), 2h) turned out to be 2.26; the “log2FC of plasma level” value (M/C (maoto vs control), 4h) is -2.31; the “log2FC of plasma level” value (P/C (polyI:C vs control), 2h) amounted to 0.65; the “log2FC of plasma level” value (P/C (polyI:C vs control), 4h) worked out at 0.35; the “log2FC of plasma level” value under setting [2] is given as -0.77; the “log2FC of plasma level” value under setting [3] is listed as -1.51.

Consider `CCCCC/C=C/C=C/C(=O)CCCCCCCC(=O)O` [9-KODE], for which the “log2FC of plasma level” value is, setting by setting: (M/C (maoto vs control), 2h) -0.09; (M/C (maoto vs control), 4h) -0.95; (P/C (polyI:C vs control), 2h) -0.17; (P/C (polyI:C vs control), 4h) 0.97; under setting [2], -0.03; under setting [3], -1.16.

Regarding `CC/C=C\C/C=C\C/C=C\C=C\C(O)C/C=C\C/C=C\CCC(=O)O` (stereo not drawn) [10-HDoHE], the “log2FC of plasma level” value runs as follows: (M/C (maoto vs control), 2h) 0.15; (M/C (maoto vs control), 4h) -0.47; (P/C (polyI:C vs control), 2h) 0.01; (P/C (polyI:C vs control), 4h) 0.14; under setting [2], -0.04; under setting [3], -0.60.
